In patent publication US20150344978A1, “NICOTINE RESISTANT MICROORGANISMS” (priority 2014, published 2015):

Assays:
[1] = test system: yeast
[2] = test system: nicotine resistant yeast strain
Method: (§1) In the method, the X-PRESS yeast strain was subjected to a number of selection cycles to generate nicotine resistance. First, the X-PRESS yeast strain was cultured in liquid media (YP medium containing yeast extract (5 g/L); peptone (10 g/L)) to which 1% w/v (10 mg/ml) nicotine was added for 72 hr at 27° C. with shaking 200 rpm. […] After 72 hr, 100 μl of the culture was applied to a 1% w/v nicotine YP agar plate and allowed to grow on the plate at 27° C. for another 72 hr. In the next step, a single colony was inoculated into a 1.5% w/v nicotine YP medium solution and incubated for another 72 hr and the entire process was repeated. This process was repeated multiple times with the concentration of nicotine being increased in increments of 0.5% w/v at each cycle. […] In FIGS. 3A & 3B, the yeast strains were inoculated onto a nicotine-containing culture plate (nicotine 50 mg/ml, yeast extract 5 g/L, peptone 10 g/L and agar 15 g/L) and incubated at 27° C. for 3 days.
To ensure the stability of the nicotine resistance trait, an additional 20 generations of the resistant strain were cultured in the 7.5% w/v nicotine nutrient solution. […] This nicotine resistant Saccharomyces cerevisiae yeast strain was deposited on under the terms of the Budapest Treaty on the International Recognition of the Deposit of Microorganisms for the Purposes of Patent Procedure at the American Type Culture Collection (ATCC) in Manassas, Va., USA and bears the Patent Accession No. ______.

[3] = test system: X-PRESS yeast strain
Method: as §1

CN1CCCC1c1cccnc1 (centres unmarked) [nicotine]
less ethanol production expected ([1]; in the presence of 0.5% nicotine): 21% | less sugar consumption by yeast ([1]; nicotine 5 mg/ml added into fermentation solution (FIG. 1)): 21% | growth of nicotine resistant strain in medium [2]: capable of growing | growth of nicotine resistant yeast [2]: still able to grow | growth of nicotine resistant yeast on nicotine-containing culture plate [2]: grew well | effect on growth of X-PRESS yeast in liquid YP medium ([3]; 1% w/v (10 mg/ml) nicotine, 72 hr, 27° C., shaking 200 rpm): inhibited the growth rate, but did not kill the yeast | growth of X-PRESS yeast on nicotine-containing culture plate ([3]; nicotine 50 mg/ml, yeast extract 5 g/L, peptone 10 g/L, agar 15 g/L, 27° C., 3 days): No yeast growth could be observed | survival of X-PRESS yeast colonies ([3]; nicotine concentration of 7.5%): no surviving yeast colonies
